In patent US20060172993A1 (priority 2002, published 2006):

Test system: Patients diagnosed with Alzheimer's Disease
Test: Adverse events / safety monitoring in the trial
Format: in vivo, human
Method: Subjects in the Placebo group received 21 weeks (5 months) of placebo medication.
The safety of the drug was also monitored throughout the study. Blood samples for biochemistry and haematology and random urine sample for urinalysis were taken at each visit and at completion for all efficacy testing. Systolic and diastolic blood pressure were measured in the sitting position, pulse and vital signs were recorded at each visit.

COc1ccc2c3c1O[C@H]1C[C@@H](O)C=C[C@@]31CCN(C)C2 [GAL, galantamine]
Serious adverse event Basal cell carcinoma, % of patients (16 mg/day): (0.0%) | Serious adverse event Basal cell carcinoma, number of patients (16 mg/day): 0 | Serious adverse event Breast neoplasm female, % of patients (16 mg/day): (0.0%) | Serious adverse event Breast neoplasm female, number of patients (16 mg/day): 0 | Serious adverse event Cardiac failure, % of patients (16 mg/day): (1.1%) | Serious adverse event Cardiac failure, number of patients (16 mg/day): 3 | Serious adverse event Dehydration, % of patients (16 mg/day): (1.1%) | Serious adverse event Dehydration, number of patients (16 mg/day): 3 | Serious adverse event Diarrhea, % of patients (16 mg/day): (1.1%) | Serious adverse event Diarrhea, number of patients (16 mg/day): 3 | Serious adverse event Dyspnea, % of patients (16 mg/day): (0.7%) | Serious adverse event Dyspnea, number of patients (16 mg/day): 2 | Serious adverse event Fall, % of patients (16 mg/day): (0.4%) | Serious adverse event Fall, number of patients (16 mg/day): 1 | Serious adverse event Gi haemorrhage, % of patients (16 mg/day): (0.0%) | Serious adverse event Gi haemorrhage, number of patients (16 mg/day): 0 | Serious adverse event Injury, % of patients (16 mg/day): (0.4%) | Serious adverse event Injury, number of patients (16 mg/day): 1 | Serious adverse event Myocardial infarction, % of patients (16 mg/day): (0.4%) | Serious adverse event Myocardial infarction, number of patients (16 mg/day): 1 | Serious adverse event Nausea, % of patients (16 mg/day): (0.7%) | Serious adverse event Nausea, number of patients (16 mg/day): 2 | Serious adverse event Pneumonia, % of patients (16 mg/day): (0.7%) | Serious adverse event Pneumonia, number of patients (16 mg/day): 2 | Serious adverse event Sepsis, % of patients (16 mg/day): (0.0%) | Serious adverse event Sepsis, number of patients (16 mg/day): 0 | Serious adverse event Surgical intervention, % of patients (16 mg/day): (1.1%) | Serious adverse event Surgical intervention, number of patients (16 mg/day): 3 | Serious adverse event Syncope, % of patients (16 mg/day): (1.4%) | Serious adverse event Syncope, number of patients (16 mg/day): 4 | Serious adverse event Thrombophlebitis deep, % of patients (16 mg/day): (0.0%) | Serious adverse event Thrombophlebitis deep, number of patients (16 mg/day): 0 | Serious adverse event Transient ischemic attack, % of patients (16 mg/day): (0.7%) | Serious adverse event Transient ischemic attack, number of patients (16 mg/day): 2 | Serious adverse event Urinary tract infection, % of patients (16 mg/day): (0.7%) | Serious adverse event Urinary tract infection, number of patients (16 mg/day): 2 | Serious adverse event Vomiting, % of patients (16 mg/day): (0.7%) | Serious adverse event Vomiting, number of patients (16 mg/day): 2 | Total patients with any SAE, % (16 mg/day): (10.0%) | Total patients with any SAE, number (16 mg/day): 28 | Adverse event Agitation, % of patients (24 mg/day): (8.1%) | Adverse event Agitation, number of patients (24 mg/day): 22 | Adverse event Anorexia, % of patients (24 mg/day): (8.8%) | Adverse event Anorexia, number of patients (24 mg/day): 24 | Adverse event Depression, % of patients (24 mg/day): (8.%) | Adverse event Depression, number of patients (24 mg/day): 22 | Adverse event Diarrhea, % of patients (24 mg/day): (5.5%) | Adverse event Diarrhea, number of patients (24 mg/day): 15 | Adverse event Dizziness, % of patients (24 mg/day): (7.0%) | Adverse event Dizziness, number of patients (24 mg/day): 19 | Adverse event Dyspepsia, % of patients (24 mg/day): (5.5%) | Adverse event Dyspepsia, number of patients (24 mg/day): 15 | Adverse event Edema peripheral, % of patients (24 mg/day): (2.6%) | Adverse event Edema peripheral, number of patients (24 mg/day): 7 | Adverse event Fall, % of patients (24 mg/day): (4.4%) | Adverse event Fall, number of patients (24 mg/day): 12 | Adverse event Headache, % of patients (24 mg/day): (4.8%) | Adverse event Headache, number of patients (24 mg/day): 13 | Adverse event Injury, % of patients (24 mg/day): (5.9%) | Adverse event Injury, number of patients (24 mg/day): 16 | Adverse event Nausea, % of patients (24 mg/day): (16.5%) | Adverse event Nausea, number of patients (24 mg/day): 45 | Adverse event Rhinitis, % of patients (24 mg/day): (4.0%) | Adverse event Rhinitis, number of patients (24 mg/day): 11 | Adverse event Urinary tract infection, % of patients (24 mg/day): (8.1%) | Adverse event Urinary tract infection, number of patients (24 mg/day): 22 | Adverse event Vomiting, % of patients (24 mg/day): (9.9%) | Adverse event Vomiting, number of patients (24 mg/day): 27 | Adverse event Weight decrease, % of patients (24 mg/day): (4.8%) | Adverse event Weight decrease, number of patients (24 mg/day): 13 | Adverse event of clinical interest Bradycardia, % of patients (24 mg/day): (2.9%) | Adverse event of clinical interest Bradycardia, number of patients (24 mg/day): 8 | Adverse event of clinical interest Convulsions, % of patients (24 mg/day): (0.4%) | Adverse event of clinical interest Convulsions, number of patients (24 mg/day): 1 | Adverse event of clinical interest Fatigue, % of patients (24 mg/day): (4.8%) | Adverse event of clinical interest Fatigue, number of patients (24 mg/day): 13 | Adverse event of clinical interest Muscle weakness, % of patients (24 mg/day): (0.4%) | Adverse event of clinical interest Muscle weakness, number of patients (24 mg/day): 1 | Adverse event of clinical interest Syncope, % of patients (24 mg/day): (3.3%) | Adverse event of clinical interest Syncope, number of patients (24 mg/day): 9 | Serious adverse event Abdominal pain, % of patients (24 mg/day): (0.0%) | Serious adverse event Abdominal pain, number of patients (24 mg/day): 0 | Serious adverse event Agitation, % of patients (24 mg/day): (0.0%) | Serious adverse event Agitation, number of patients (24 mg/day): 0 | Serious adverse event Asthenia, % of patients (24 mg/day): (0.4%) | Serious adverse event Asthenia, number of patients (24 mg/day): 1 | Serious adverse event Basal cell carcinoma, % of patients (24 mg/day): (0.7%) | Serious adverse event Basal cell carcinoma, number of patients (24 mg/day): 2 | Serious adverse event Breast neoplasm female, % of patients (24 mg/day): (0.0%) | Serious adverse event Breast neoplasm female, number of patients (24 mg/day): 0 | Serious adverse event Cardiac failure, % of patients (24 mg/day): (0.0%) | Serious adverse event Cardiac failure, number of patients (24 mg/day): 0 | Serious adverse event Dehydration, % of patients (24 mg/day): (0.0%) | Serious adverse event Dehydration, number of patients (24 mg/day): 0 | Serious adverse event Diarrhea, % of patients (24 mg/day): (0.0%) | Serious adverse event Diarrhea, number of patients (24 mg/day): 0 | Serious adverse event Dyspnea, % of patients (24 mg/day): (1.1%) | Serious adverse event Dyspnea, number of patients (24 mg/day): 3. | Serious adverse event Fall, % of patients (24 mg/day): (1.1%) | Serious adverse event Fall, number of patients (24 mg/day): 3 | Serious adverse event Gi haemorrhage, % of patients (24 mg/day): (0.7%) | Serious adverse event Gi haemorrhage, number of patients (24 mg/day): 2 | Serious adverse event Injury, % of patients (24 mg/day): (1.8%) | Serious adverse event Injury, number of patients (24 mg/day): 5 | Serious adverse event Myocardial infarction, % of patients (24 mg/day): (0.4%) | Serious adverse event Myocardial infarction, number of patients (24 mg/day): 1 | Serious adverse event Nausea, % of patients (24 mg/day): (0.0%) | Serious adverse event Nausea, number of patients (24 mg/day): 0 | Serious adverse event Pneumonia, % of patients (24 mg/day): (1.1%) | Serious adverse event Pneumonia, number of patients (24 mg/day): 3 | Serious adverse event Sepsis, % of patients (24 mg/day): (0.0%) | Serious adverse event Sepsis, number of patients (24 mg/day): 0 | Serious adverse event Surgical intervention, % of patients (24 mg/day): (0.0%) | Serious adverse event Surgical intervention, number of patients (24 mg/day): 0 | Serious adverse event Syncope, % of patients (24 mg/day): (1.8%) | Serious adverse event Syncope, number of patients (24 mg/day): 5 | Serious adverse event Thrombophlebitis deep, % of patients (24 mg/day): (0.7%) | Serious adverse event Thrombophlebitis deep, number of patients (24 mg/day): 2 | Serious adverse event Transient ischemic attack, % of patients (24 mg/day): (0.0%) | Serious adverse event Transient ischemic attack, number of patients (24 mg/day): 0 | Serious adverse event Urinary tract infection, % of patients (24 mg/day): (0.0%) | Serious adverse event Urinary tract infection, number of patients (24 mg/day): 0 | Serious adverse event Vomiting, % of patients (24 mg/day): (0.4%) | Serious adverse event Vomiting, number of patients (24 mg/day): 1 | Syncope incidence (24 mg/day): slight dose-related increase in incidence | Total patients with any SAE, % (24 mg/day): (12.8%) | Total patients with any SAE, number (24 mg/day): 35 | Occurrence of nausea, vomiting and anorexia (8, 16, 24 mg/day): mild dose-related occurrence at a relatively low incidence | Bradycardia incidence compared with placebo (all galantamine doses): higher incidence | Incidence of serious adverse events (all treatment groups): comparable across all treatment groups | Deaths related to trial medication (throughout the trial): No death was considered by the investigator to be related to trail medication
